Usually IC50 stands for the concentration at which inhibition is half-maximal.

The target of one assay is T1, Human FXIa (Homo sapiens, UniProt P03951).
T1 construct: purchased HTI, Essex Junction, USA
Put plainly: FXIa enzymatic chromogenic assay. The following applies: 1 mM. In kind it is biochemical. The protocol: Enzymatic assay. […] Selected compounds were also screened against other serine proteases to evaluate their selectivity profiles.
Once the compounds were synthesized and characterized, enzymatic assays were performed to evaluate the inhibitory activity of the resulting compounds against FXIa and other serine proteases. […] IC50 values for the compounds were determined using equation: Q= V/(1+([I]/IC50)^n) Q denotes the assay readout, V denotes the uninhibited velocity of the enzyme, [I] denotes the inhibitor concentration, n denotes the slope and IC50 is the inhibitor concentration at V/2.
[S] denotes the substrate concentration.

Another assay addresses T2, FXIa CD (Homo sapiens, UniProt P03951, C500S/K455A/S452A/T493A).
T2 construct: purification of the catalytic domain (residues 370–607) was carried out as described by Jin et al; made in house
Put plainly: Ligand detected 1D NMR fragment screen. To be noted: compounds screened at 100 μM, 5 μM FXIa CD. In kind it is binding. The procedure: Ligand detected 1D NMR. Compounds were screened at 100 μM in mixtures of six. Weakly binding fragments were identified from intensity changes through measurements on three samples viz. […] The signal from a compound binding with low affinity to FXIa CD decreased upon addition of protein and regained upon addition of a high affinity reference compound. Comparison with reference spectra of individual compounds enabled identification of the binding fragment in a mixture. […] As a positive control, the S1 binding ligand para-methyl-benzamidine (pMeBza), compound 3, was used, and in Fig. 3 the doublet at 7.66 ppm is shown.
NMR samples were prepared in aqueous buffer containing 50 mM deuterated TRIS, pH 7.4, 3 mM NaN3, and 10% D2O. FXIa CD stock solution was buffer exchanged and concentrated to approximately 100 μM (2.7 mg/mL) (UV absorption ε280 = 60390 cm^-1) using 10 kDa cut-off Millipore filter centrifugation tubes. Control experiments with pMeBza and compound 2 were done on all protein preparations (Fig. 3). […]
NMR data were collected at 20 °C on a Bruker Avance III 600 MHz NMR spectrometer equipped with a cryo probe head. 1D ^1H T 1ρ NMR spectra were recorded with 256 scans, 3.2 s interscan delay, 180 ms spin lock time and 64 kHz spin lock field. […]

A further assay concerns FXIa. Further details: method as in PMID 17597608. To be noted: irreversible inhibition; cited from earlier work.
A further assay has as its system rat models. Further details: method as in PMID 17597608. To be noted: cited from earlier work.

T1 sequence (P03951 388-625): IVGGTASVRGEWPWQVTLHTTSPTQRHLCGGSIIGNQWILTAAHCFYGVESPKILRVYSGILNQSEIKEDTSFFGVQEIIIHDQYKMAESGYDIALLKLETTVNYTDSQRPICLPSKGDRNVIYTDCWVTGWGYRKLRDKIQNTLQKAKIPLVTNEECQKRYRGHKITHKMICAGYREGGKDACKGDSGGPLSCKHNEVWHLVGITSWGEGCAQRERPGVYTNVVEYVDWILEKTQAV
T1 sequence (P03951 19-387): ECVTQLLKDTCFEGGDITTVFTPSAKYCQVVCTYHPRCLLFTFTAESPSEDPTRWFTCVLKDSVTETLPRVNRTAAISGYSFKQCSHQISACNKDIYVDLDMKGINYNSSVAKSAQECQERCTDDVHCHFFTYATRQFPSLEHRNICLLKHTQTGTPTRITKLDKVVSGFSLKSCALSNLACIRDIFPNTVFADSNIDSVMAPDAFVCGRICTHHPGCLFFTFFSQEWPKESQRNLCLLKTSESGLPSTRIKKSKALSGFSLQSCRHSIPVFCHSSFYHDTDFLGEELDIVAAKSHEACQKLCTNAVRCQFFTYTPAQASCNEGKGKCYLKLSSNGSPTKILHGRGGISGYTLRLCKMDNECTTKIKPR
T2 sequence (P03951 388-625 S452A/K455A/T493A/C500S): as the sequence (P03951 388-625) above, with S65A, K68A, T106A, C113S counted along it

Regarding “6-methyl-3,4-dihydro-1H-quinolin-2-one [Compound 17]”, at Human FXIa, the “FXIa % inh. at 1 mM” value was 20%. Besides, the “hit in NMR screen” value at FXIa CD is “not identified as a hit in NMR”.

As to `CC(C)(C)NC(=O)N1CCN(C(=O)N2C(=O)[C@H](CCCN=C(N)N)[C@H]2C(=O)O)CC1` [BMS-262084], the IC50 in the assay on FXIa is 2.8 nM. Further, in the assay with rat models, the “in vivo antithrombotic efficacy” value is “demonstrated in vivo antithrombotic efficacy”.
